ChEMBL document CHEMBL1152524, “Preparation of C-23 esterified silybin derivatives and evaluation of their lipid peroxidation inhibitory and DNA protective properties” (Bioorg Med Chem, 2009)
The source made the active and inactive calls. The calls are words filed in the database; no cut-off is given here.

What was measured:
[1] = Antioxidant activity assessed as superoxide anion scavenging activity at 100 ug/mL after 5 mins by NBT reduction assay; format: functional
[2] = Antioxidant activity assessed as ferrous ion chelating activity after 30 mins by spectrophotometry; format: functional
Liver = assay: Inhibition of FeSO4-induced lipid peroxidation in Sprague-Dawley rat liver homogenate assessed as decrease in malondialdehyde level after 1 hr by TBA assay; format: functional, tissue-based
[3] = tested on: Radical scavenging activity; assay: Antioxidant activity assessed as DPPH radical scavenging activity at 100 ug/mL after 30 mins; format: functional
[4] = Antioxidant activity assessed as protection against H2O2-induced pcDNA3.1(+) scission at 100 ug/mL after 30 mins by […] staining-based gel electrophoresis; format: functional
[5] = Antioxidant activity assessed as protection against H2O2-induced pcDNA3.1(+) scission after 30 mins by […] staining-based gel electrophoresis; format: functional
[6] = Antioxidant activity assessed as superoxide anion scavenging activity after 5 mins by NBT reduction assay; format: functional
[7] = tested on: Radical scavenging activity; assay: Antioxidant activity assessed as DPPH radical scavenging activity after 30 mins; format: functional

| SMILES | Activity [1] | EC50 [2] | IC50 (Liver) | Activity [3] | Activity [4] | Activity [5] | EC50 [6] | Activity (Liver) | EC50 [7] |
| --- | --- | --- | --- | --- | --- | --- | --- | --- | --- |
| COc1cc(C2Oc3cc([C@H]4Oc5cc(O)cc(O)c5C(=O)[C@@H]4O)ccc3OC2COC(=O)/C=C/c2ccc(C)cc2)ccc1O (relative stereo) | 7.3% | 136 µM | 14.7 µM | 33.3% | Active |  |  |  |  |
| COc1cc(C2Oc3cc([C@H]4Oc5cc(O)cc(O)c5C(=O)[C@@H]4O)ccc3OC2COC(=O)c2ccc(OC)c(OC)c2)ccc1O (mixture of isomers) | 37.2% | 77 µM | 16 µM | 34.2% | Active | Dose-dependent effect |  |  |  |
| COc1cc(C2Oc3cc([C@H]4Oc5cc(O)cc(O)c5C(=O)[C@@H]4O)ccc3OC2COC(=O)c2ccc([N+](=O)[O-])cc2)ccc1O (relative stereo) | inactive | > 300 µM | 12.6 µM | 38.6% | inactive |  |  |  |  |
| COc1cc(C2Oc3cc([C@H]4Oc5cc(O)cc(O)c5C(=O)[C@@H]4O)ccc3OC2COC(=O)c2ccc3c(c2)OCO3)ccc1O (relative stereo) | 7.3% | 108 µM | 20.8 µM | 31.7% | inactive |  |  |  |  |
| COc1cc(C2Oc3cc([C@H]4Oc5cc(O)cc(O)c5C(=O)[C@@H]4O)ccc3OC2COC(=O)c2cc([N+](=O)[O-])cc([N+](=O)[O-])c2)ccc1O (relative stereo) | 32% | 205 µM | 14.6 µM | 22.1% | inactive |  |  |  |  |
| COc1cc(C2Oc3cc([C@H]4Oc5cc(O)cc(O)c5C(=O)[C@@H]4O)ccc3OC2COC(=O)/C=C/c2ccc(Cl)cc2)ccc1O (relative stereo) | 9.1% | 87.9 µM | 12 µM | 18.4% | Active | Dose-dependent effect |  |  |  |
| COc1cc(C2Oc3cc([C@H]4Oc5cc(O)cc(O)c5C(=O)[C@@H]4O)ccc3OC2COC(=O)c2cc(N)cc([N+](=O)[O-])c2)ccc1O (some centres not stated) | 54.3% | > 300 µM | 0.2 µM | 59.9% | inactive |  | 129 µM | Dose-dependent effect | 127 µM |
| O=c1c(O)c(-c2ccc(O)c(O)c2)oc2cc(O)cc(O)c12 [QUERCETIN] | 93.8% | 236 µM | 1.8 µM | 96.8% |  |  | 31.8 µM | Dose-dependent effect | 5.5 µM |
| COc1cc(C2Oc3cc([C@H]4Oc5cc(O)cc(O)c5C(=O)[C@@H]4O)ccc3OC2COC(=O)c2ccc(N)cc2)ccc1O (relative stereo) | 43.3% | 128 µM | 14.3 µM | 16.4% | inactive |  |  |  |  |
| COc1cc(C2Oc3cc([C@H]4Oc5cc(O)cc(O)c5C(=O)[C@@H]4O)ccc3OC2CO)ccc1O (some centres not stated) [SILIBININ] | 38.2% | 196 µM | 22.7 µM | 16.6% |  |  |  |  |  |
| COc1cc(C2Oc3cc([C@H]4Oc5cc(O)cc(O)c5C(=O)[C@@H]4O)ccc3OC2COC(=O)c2ccccc2)ccc1O (relative stereo) | inactive | 105 µM | 12.7 µM | 40.4% | Active | Dose-dependent effect |  |  |  |
| O=C([O-])CN(CCN(CC(=O)[O-])CC(=O)O)CC(=O)O.[Na+].[Na+] [EDETATE DISODIUM ANHYDROUS] |  | 16.2 µM |  |  |  |  |  |  |  |
| COc1cc(C2Oc3cc([C@H]4Oc5cc(O)cc(O)c5C(=O)[C@@H]4O)ccc3OC2COC(=O)/C=C/c2ccc(Br)cc2)ccc1O (relative stereo) | 6.5% | 88.9 µM | 16.3 µM | 19.8% | Active | Dose-dependent effect |  |  |  |
| COc1cc(C2Oc3cc([C@H]4Oc5cc(O)cc(O)c5C(=O)[C@@H]4O)ccc3OC2COC(=O)c2cccc(Cl)c2)ccc1O (some centres not stated) | 7% | 106 µM | 14.2 µM | 5.6% | Active |  |  |  |  |
| CCOC(=O)CC(=O)OCC1Oc2ccc([C@H]3Oc4cc(O)cc(O)c4C(=O)[C@@H]3O)cc2OC1c1ccc(O)c(OC)c1 (relative stereo) | 60.1% | 101 µM | 33.4 µM | 16.2% | Active |  | 113 µM |  |  |
| COc1cc(C2Oc3cc([C@H]4Oc5cc(O)cc(O)c5C(=O)[C@@H]4O)ccc3OC2COC(=O)c2cc(OC)c(OC)c(OC)c2)ccc1O (relative stereo) | 36.1% | 94.8 µM | 25.7 µM | 52.6% | Active | Dose-dependent effect |  |  | 145 µM |
| COc1ccc(C(=O)OCC2Oc3ccc([C@H]4Oc5cc(O)cc(O)c5C(=O)[C@@H]4O)cc3OC2c2ccc(O)c(OC)c2)cc1 (relative stereo) | 6.5% | 73.3 µM | 21 µM | 37.1% | inactive |  |  |  |  |
